Measurements reported in patent publication US6878716B1, “Compounds specific to adenosine A1 receptor and uses thereof” (OSI Pharmaceuticals, Inc., priority 1998, dated 2005).
Like-named read-outs stand apart in the source and are kept apart here.

Key:
[1] = target: T1, human adenosine A1 receptor (Homo sapiens, UniProt P30542); experiment: Yeast β-Galactosidase reporter gene assay, inhibition of NECA-induced activity (strain CY12660)
T1 sequence (P30542 1-326): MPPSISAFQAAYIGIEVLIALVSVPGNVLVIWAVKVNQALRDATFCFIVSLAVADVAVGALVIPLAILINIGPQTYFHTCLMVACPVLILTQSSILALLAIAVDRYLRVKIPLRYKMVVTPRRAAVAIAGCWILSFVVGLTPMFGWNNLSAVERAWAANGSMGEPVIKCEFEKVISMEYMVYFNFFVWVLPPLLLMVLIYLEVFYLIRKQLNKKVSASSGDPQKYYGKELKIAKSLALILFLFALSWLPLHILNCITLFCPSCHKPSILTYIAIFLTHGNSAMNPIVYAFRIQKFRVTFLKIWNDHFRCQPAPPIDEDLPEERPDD

[2] = target: T2, human A2a receptor subtype (Homo sapiens, UniProt P29274); experiment: Adenosine 2a receptor subtype competition radioligand binding ([3H]CGS-21680, HEK293 membranes); details: Table 13, % value; footnote 8: % activity @ 10 μM
T2 construct: expressed in transfected cells; host or cells: HEK-293 (Cadus clone # 5)

[3] = target: T3, human A1 receptor subtype (Homo sapiens, UniProt P30542); details: Table 13, % value; footnote 8: % activity @ 10 μM
T3 sequence (P30542 1-326): T1 sequence (P30542 1-326)

[4] = target: T3, human A1 receptor subtype; experiment: biochemical
[5] = target: T4, A1 adenosine receptor (Homo sapiens, UniProt P30542); details: reported value; cited from earlier work
T4 sequence (P30542 1-326): T1 sequence (P30542 1-326)

[6] = read-out: A1 Yeast IC50, Table 10

T2 sequence (P29274 whole entry): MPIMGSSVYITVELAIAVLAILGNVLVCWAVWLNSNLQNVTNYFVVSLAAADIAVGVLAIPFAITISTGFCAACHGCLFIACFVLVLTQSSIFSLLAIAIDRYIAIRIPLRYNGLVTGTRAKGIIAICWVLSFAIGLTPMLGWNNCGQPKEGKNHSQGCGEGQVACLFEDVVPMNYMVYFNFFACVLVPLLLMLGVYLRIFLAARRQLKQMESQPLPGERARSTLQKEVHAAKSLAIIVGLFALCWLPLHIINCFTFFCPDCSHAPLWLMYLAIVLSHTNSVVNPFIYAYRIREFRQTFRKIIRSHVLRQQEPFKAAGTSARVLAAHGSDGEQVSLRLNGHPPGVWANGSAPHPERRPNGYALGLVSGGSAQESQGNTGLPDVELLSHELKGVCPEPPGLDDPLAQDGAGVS

Row | SMILES | IC50 [1, 6] [µM] | A2a % activity [2] [%] | further results
1 | Cc1[nH]c2nc(-c3ccccc3)nc(NCCNC(=O)CCN)c2c1C [Compound 1009] | > 10 |  | 
2 | Cc1[nH]c2nc(-c3ccccc3)nc(NCCNS(C)(=O)=O)c2c1C [Compound 1007] | > 10 |  | 
3 | CNC(=O)NCCCNc1nc(-c2ccccc2)nc2[nH]c(C)c(C)c12 [Compound 1310] |  | 76 | 
4 | Cc1[nH]c2nc(-c3ccccc3)nc(NCCNC(=O)C3(N)CC3)c2c1C [Compound 1313] |  | 65 | A1 % activity [3]: 30%
5 | CCC(=O)NCCCNc1nc(-c2ccccc2)nc2[nH]c(C)c(C)c12 [Compound 1012] |  |  | Ki [4]: 0.234 µM; IC50 [1]: 3.46 µM
6 | C[C@H](Cc1ccccc1)Nc1ncnc2c1ncn2[C@@H]1O[C@H](CO)[C@@H](O)[C@H]1O (single isomer, unassigned) [R-PIA, (−)-N6-(2-phenylisopropyl)-adenosine] |  |  | affinity (reported) [5]: approximately 50 nM
